In BigSolDB 2.1:

Structure (SMILES): COc1c(C)c2c(c(O)c1C/C=C(\C)CCC(=O)OCCN1CCOCC1)C(=O)OC2
- solubility (mole fraction) (in DMSO, 293.15 K): 0.0166
- solubility (mole fraction) (in DMSO, 298.15 K): 0.0214
- solubility (mole fraction) (in DMSO, 303.15 K): 0.0263
- solubility (mole fraction) (in DMSO, 308.15 K): 0.0322
- solubility (mole fraction) (in DMSO, 313.15 K): 0.0389
- solubility (mole fraction) (in DMSO, 318.15 K): 0.046
- solubility (mole fraction) (in ethanol, 278.15 K): 0.00352
- solubility (mole fraction) (in ethanol, 283.15 K): 0.00394
- solubility (mole fraction) (in ethanol, 288.15 K): 0.00449
- solubility (mole fraction) (in ethanol, 293.15 K): 0.00511
- solubility (mole fraction) (in ethanol, 298.15 K): 0.00581
- solubility (mole fraction) (in ethanol, 303.15 K): 0.00659
- solubility (mole fraction) (in ethanol, 308.15 K): 0.00749
- solubility (mole fraction) (in ethanol, 313.15 K): 0.00847
- solubility (mole fraction) (in ethanol, 318.15 K): 0.0095
- solubility (mole fraction) (in isopropanol, 278.15 K): 0.00538
- solubility (mole fraction) (in isopropanol, 283.15 K): 0.00592
- solubility (mole fraction) (in isopropanol, 288.15 K): 0.00664
- solubility (mole fraction) (in isopropanol, 293.15 K): 0.00732
- solubility (mole fraction) (in isopropanol, 298.15 K): 0.00821
- solubility (mole fraction) (in isopropanol, 303.15 K): 0.0091
- solubility (mole fraction) (in isopropanol, 308.15 K): 0.00998
- solubility (mole fraction) (in isopropanol, 313.15 K): 0.011
- solubility (mole fraction) (in isopropanol, 318.15 K): 0.0121
- solubility (mole fraction) (in propylene glycol, 278.15 K): 0.000349
- solubility (mole fraction) (in propylene glycol, 283.15 K): 0.000486
- solubility (mole fraction) (in propylene glycol, 288.15 K): 0.000633
- solubility (mole fraction) (in propylene glycol, 293.15 K): 0.00081
- solubility (mole fraction) (in propylene glycol, 298.15 K): 0.001
- solubility (mole fraction) (in propylene glycol, 303.15 K): 0.00122
- solubility (mole fraction) (in propylene glycol, 308.15 K): 0.00145
- solubility (mole fraction) (in propylene glycol, 313.15 K): 0.00172
- solubility (mole fraction) (in propylene glycol, 318.15 K): 0.00199
- solubility (mole fraction) (in water, 278.15 K): 2.62e-07
- solubility (mole fraction) (in water, 283.15 K): 4.16e-07
- solubility (mole fraction) (in water, 288.15 K): 6.62e-07
- solubility (mole fraction) (in water, 293.15 K): 1.05e-06
- solubility (mole fraction) (in water, 298.15 K): 1.55e-06
- solubility (mole fraction) (in water, 303.15 K): 2.12e-06
- solubility (mole fraction) (in water, 308.15 K): 2.84e-06
- solubility (mole fraction) (in water, 313.15 K): 3.68e-06
- solubility (mole fraction) (in water, 318.15 K): 4.51e-06
